Experimental data taken from patent US20240182481A1 (Tango Therapeutics, Inc., priority 2021, published 2024).

Experiments:
[1] = test system: HCC1954 (BRCA1 WT) cell line; test: Viability assay in BRCA1 WT cell line HCC1954; format: cell-based; details: Homo sapiens, read-out: HCC 1954 IC50 rel IC50
Source text: (§1) Table 1 also indicates IC50 values in a viability assay for a non-isogenic pair of BRCA1 mutant (column 5—MDA-MB-436) and BRCA1 WT (column 6—HCC1954) cell lines. These values indicate the effect of treatment with compound on cell survival.

USP1-UAF1 = USP1-UAF1 (Homo sapiens, UniProt O94782); test: Ubiquitin Rhodamine assay for USP1-UAF1 activity; format: biochemical
Sequence of USP1-UAF1 (O94782 whole entry): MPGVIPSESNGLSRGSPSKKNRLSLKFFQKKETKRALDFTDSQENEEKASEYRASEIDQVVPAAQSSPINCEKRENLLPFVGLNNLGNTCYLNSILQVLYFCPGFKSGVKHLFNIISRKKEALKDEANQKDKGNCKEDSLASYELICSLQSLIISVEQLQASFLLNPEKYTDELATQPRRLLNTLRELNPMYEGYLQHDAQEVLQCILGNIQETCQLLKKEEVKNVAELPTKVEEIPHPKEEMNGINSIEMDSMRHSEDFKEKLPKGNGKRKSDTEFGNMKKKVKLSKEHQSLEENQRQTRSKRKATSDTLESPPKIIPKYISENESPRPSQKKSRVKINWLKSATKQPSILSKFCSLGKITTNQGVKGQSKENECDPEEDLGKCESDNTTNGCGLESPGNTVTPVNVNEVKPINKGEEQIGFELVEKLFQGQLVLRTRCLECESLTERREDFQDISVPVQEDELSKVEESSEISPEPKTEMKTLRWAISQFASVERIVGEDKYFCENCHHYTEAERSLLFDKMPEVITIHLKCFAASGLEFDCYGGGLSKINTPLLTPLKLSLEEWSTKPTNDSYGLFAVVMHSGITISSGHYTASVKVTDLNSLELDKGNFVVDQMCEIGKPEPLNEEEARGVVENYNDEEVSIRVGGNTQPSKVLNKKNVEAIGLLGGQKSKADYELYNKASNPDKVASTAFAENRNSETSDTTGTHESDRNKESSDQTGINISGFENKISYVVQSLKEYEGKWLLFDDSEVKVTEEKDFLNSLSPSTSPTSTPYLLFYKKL
Sequence of USP1-UAF1 (Q8TAF3 whole entry partner): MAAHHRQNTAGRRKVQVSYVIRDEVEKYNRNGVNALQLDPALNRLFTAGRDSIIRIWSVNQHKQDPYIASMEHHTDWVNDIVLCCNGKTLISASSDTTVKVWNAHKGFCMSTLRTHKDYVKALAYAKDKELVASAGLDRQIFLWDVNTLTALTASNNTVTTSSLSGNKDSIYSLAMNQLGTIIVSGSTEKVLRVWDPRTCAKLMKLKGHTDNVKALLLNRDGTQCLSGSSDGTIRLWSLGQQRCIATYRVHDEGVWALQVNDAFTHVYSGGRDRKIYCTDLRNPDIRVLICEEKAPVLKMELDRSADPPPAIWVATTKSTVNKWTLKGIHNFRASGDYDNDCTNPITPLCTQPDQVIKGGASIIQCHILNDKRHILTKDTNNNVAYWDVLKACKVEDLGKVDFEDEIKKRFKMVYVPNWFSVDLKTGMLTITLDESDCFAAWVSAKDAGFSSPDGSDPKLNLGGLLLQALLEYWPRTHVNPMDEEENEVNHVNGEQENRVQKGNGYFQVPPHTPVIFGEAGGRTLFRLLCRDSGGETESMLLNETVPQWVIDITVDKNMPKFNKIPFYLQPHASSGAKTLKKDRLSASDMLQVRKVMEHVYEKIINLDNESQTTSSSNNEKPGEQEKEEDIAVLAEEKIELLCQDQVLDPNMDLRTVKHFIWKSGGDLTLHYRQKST
Protocol: Certain compounds of the disclosure were assessed for USP1-UAF1 activity in a Ubiquitin Rhodamine assay as described in Example 135.

[2] = test system: MDA-MB-436 (BRCA1 mutant) cell line; test: Viability assay in BRCA1 mutant cell line MDA-MB-436; format: cell-based; details: Homo sapiens, MDA-MB-436, viability, BRCA1 mutant MDA-MB-436; read-out: MDA-MB-436 rel IC50
Source text: as §1

monoubiquitinated PCNA = test: AlphaLISA assay measuring monoubiquitinated PCNA in MDA-MB-436; format: cell-based; details: Homo sapiens, read-out: Alpha LISA IC50
Source text: Table 1 also indicates IC50 values for exemplary compounds in an AlphaLISA assay measuring monoubiquitinated PCNA in a BRCA1 mutant cell line (MDA-MB-436; column 7).

`COc1ncnc(C2CC2)c1-c1cc2c(Cc3ccc(-c4nc(C(F)(F)F)cn4C)cc3)c[nH]c2cn1` [Compound 23, 5-(4-cyclopropyl-6-methoxy-pyrimidin-5-yl)-3-[[4-[1-methyl-4-(trifluoromethyl)imidazol-2-yl]phenyl]methyl]-1H-pyrrolo[2,3-c]pyridine] was tested, and the IC50 [1] was 250 to 10000 nM, the IC50 (USP1-UAF1) was under 30 nM and the IC50 [2] was under 100 nM. For the same compound, the IC50 (monoubiquitinated PCNA) was under 100 nM.
In the case of `CC(C)c1ccccc1-c1ncc2[nH]nc(Cc3ccc(-c4nc(C(F)(F)F)cn4C)cc3)c2n1` [Compound 27, 5-(2-isopropylphenyl)-3-[[4-[1-methyl-4-(trifluoromethyl)imidazol-2-yl]phenyl]methyl]-1H-pyrazolo[4,3-d]pyrimidine], the IC50 [1] is reported as at least 10000 nM, the IC50 (USP1-UAF1) is reported as under 30 nM and the IC50 [2] is reported as under 100 nM. The IC50 (monoubiquitinated PCNA) was under 100 nM.
With `CC(C)n1cc(C(F)(F)F)nc1-c1ccc(Cc2c[nH]c3cnc(-c4cccnc4OC(F)F)nc23)cc1` [Compound 28, 2-[2-(difluoromethoxy)-3-pyridyl]-7-[[4-[1-isopropyl-4-(trifluoromethyl)imidazol-2-yl]phenyl]methyl]-5H-pyrrolo[3,2-d]pyrimidine] the IC50 [1] was at least 10000 nM, the IC50 (USP1-UAF1) was 30 to 100 nM and the IC50 [2] was under 100 nM. The IC50 (monoubiquitinated PCNA) was 100 to 250 nM.
`CN(C)c1ncccc1-c1ncc2[nH]cc(Cc3ccc(-c4nc(C(F)(F)F)cn4C)cc3)c2n1` [Compound 29, N,N-dimethyl-3-[7-[[4-[1-methyl-4-(trifluoromethyl)imidazol-2-yl]phenyl]methyl]-5H-pyrrolo[3,2-d]pyrimidin-2-yl]pyridin-2-amine] showed an IC50 [1] of at least 10000 nM, an IC50 (USP1-UAF1) of 100 to 10000 nM and an IC50 [2] of 250 to 10000 nM. It also gave an IC50 (monoubiquitinated PCNA) of 250 to 10000 nM.
`COc1ncnc(C2CC2)c1-c1ncc2[nH]cc(Cc3ccc(-c4nc(C#N)cn4C)cc3)c2n1` [Compound 31, 2-[4-[[2-(4-cyclopropyl-6-methoxy-pyrimidin-5-yl)-5H-pyrrolo[3,2-d]pyrimidin-7-yl]methyl]phenyl]-1-methyl-imidazole-4-carbonitrile] gave an IC50 [1] of at least 10000 nM, an IC50 (USP1-UAF1) of 100 to 10000 nM and an IC50 [2] of 250 to 10000 nM. It also gave an IC50 (monoubiquitinated PCNA) of 250 to 10000 nM.
For `CCn1cc(C(F)(F)F)nc1-c1ccc(C(O)c2c[nH]c3cnc(-c4c(OC)ncnc4C4CC4)nc23)cc1` (stereo not shown) [Compound 33], the IC50 [1] was at least 10000 nM, the IC50 (USP1-UAF1) was 100 to 10000 nM and the IC50 [2] was 250 to 10000 nM. For the same compound, the IC50 (monoubiquitinated PCNA) was 250 to 10000 nM.
`CCCOc1ncccc1-c1ncc2[nH]cc(Cc3ccc(-c4nc(C(F)(F)F)cn4C)cc3)c2n1` [Compound 34, 7-[[4-[1-methyl-4-(trifluoromethyl)imidazol-2-yl]phenyl]methyl]-2-(2-propoxy-3-pyridyl)-5H-pyrrolo[3,2-d]pyrimidine] was tested, and the IC50 [1] was at least 10000 nM, the IC50 (USP1-UAF1) was 30 to 100 nM and the IC50 [2] was 100 to 250 nM. The IC50 (monoubiquitinated PCNA) was 100 to 250 nM.
In the case of `Cn1cc(C(F)(F)F)nc1-c1ccc(Cc2c[nH]c3cnc(-c4cccnc4OC4CC4)nc23)cc1` [Compound 41, 2-cyclopropoxy-3-[7-([4-[1-methyl-4-(trifluoromethyl)imidazol-2-yl]phenyl]methyl)-5H-pyrrolo[3,2-d]pyrimidin-2-yl]pyridine], the IC50 [1] is reported as at least 10000 nM, the IC50 (USP1-UAF1) is reported as 30 to 100 nM and the IC50 [2] is reported as 100 to 250 nM. For the same compound, the IC50 (monoubiquitinated PCNA) was under 100 nM.
`COc1ncnc(C2CC2)c1-c1ncc2[nH]nc(Cc3ccc(-c4nc(C#N)cn4C)cc3)c2n1` [Compound 45, 2-[4-[[5-(4-cyclopropyl-6-methoxy-pyrimidin-5-yl)-1H-pyrazolo[4,3-d]pyrimidin-3-yl]methyl]phenyl]-1-methyl-imidazole-4-carbonitrile] gave an IC50 [1] of at least 10000 nM, an IC50 (USP1-UAF1) of 100 to 10000 nM and an IC50 [2] of 250 to 10000 nM. For the same compound, the IC50 (monoubiquitinated PCNA) was 250 to 10000 nM.
`COc1ncnc(C2CC2)c1-c1ncc2[nH]cc(C3(c4ccc(-c5nc(C(F)(F)F)cn5C)cc4)CC3)c2n1` [Compound 47, 2-(4-cyclopropyl-6-methoxy-pyrimidin-5-yl)-7-[1-[4-[1-methyl-4-(trifluoromethyl)imidazol-2-yl]phenyl]cyclopropyl]-5H-pyrrolo[3,2-d]pyrimidine] showed an IC50 [1] of at least 10000 nM, an IC50 (USP1-UAF1) of 30 to 100 nM and an IC50 [2] of 250 to 10000 nM. It also gave an IC50 (monoubiquitinated PCNA) of 100 to 250 nM.
`CC(C)c1ccccc1-c1ncc2[nH]cc(C(C)(O)c3ccc(-c4nc(C(F)(F)F)cn4C)cc3)c2n1` (stereo not shown) [Compound 48, 1-[2-(2-isopropylphenyl)-5H-pyrrolo[3,2-d]pyrimidin-7-yl]-1-[4-[1-methyl-4-(trifluoromethyl)imidazol-2-yl]phenyl]ethanol] gave an IC50 [1] of at least 10000 nM, an IC50 (USP1-UAF1) of under 30 nM and an IC50 [2] of under 100 nM. The IC50 (monoubiquitinated PCNA) was under 100 nM.
Compound `CC(C)c1ccccc1-c1ncc2c(n1)c(Cc1ccc(-c3nc(C(F)(F)F)cn3C)cc1)cn2CCO` [Compound 57, 2-[2-(2-isopropylphenyl)-7-[[4-[1-methyl-4-(trifluoromethyl)imidazol-2-yl]phenyl]methyl]pyrrolo[3,2-d]pyrimidin-5-yl]ethanol] has an IC50 [1] of at least 10000 nM, an IC50 (USP1-UAF1) of under 30 nM and an IC50 [2] of 250 to 10000 nM. For the same compound, the IC50 (monoubiquitinated PCNA) was 100 to 250 nM.
Compound `Cn1cc(C(F)(F)F)nc1-c1ccc(Cc2c[nH]c3cnc(-c4cccnc4C4CC4)nc23)cc1` [Compound 60, 2-(2-cyclopropyl-3-pyridyl)-7-[[4-[1-methyl-4-(trifluoromethyl)imidazol-2-yl]phenyl]methyl]-5H-pyrrolo[3,2-d]pyrimidine] has an IC50 [1] of at least 10000 nM, an IC50 (USP1-UAF1) of under 30 nM and an IC50 [2] of under 100 nM. For the same compound, the IC50 (monoubiquitinated PCNA) was under 100 nM.
In the case of `COc1ncnc(C2CC2)c1-c1ncc2[nH]cc(Cc3ccc(-c4nc(C(F)(F)F)cn4C)cc3)c2n1` [Compound 65, 2-(4-cyclopropyl-6-methoxy-pyrimidin-5-yl)-7-[[4-[1-methyl-4-(trifluoromethyl)imidazol-2-yl]phenyl]methyl]-5H-pyrrolo[3,2-d]pyrimidine], the IC50 [1] is reported as at least 10000 nM, the IC50 (USP1-UAF1) is reported as under 30 nM and the IC50 [2] is reported as under 100 nM. It also gave an IC50 (monoubiquitinated PCNA) of under 100 nM.
Compound `Cn1cc(C(F)(F)F)nc1-c1ccc(Cc2c[nH]c3cnc(-c4cccnc4C4CC4)cc23)cc1` [Compound 66, 2-cyclopropyl-3-[3-([4-[1-methyl-4-(trifluoromethyl)imidazol-2-yl]phenyl]methyl)-1H-pyrrolo[2,3-c]pyridin-5-yl]pyridine] has an IC50 [1] of 250 to 10000 nM, an IC50 (USP1-UAF1) of 30 to 100 nM and an IC50 [2] of 100 to 250 nM. It also gave an IC50 (monoubiquitinated PCNA) of under 100 nM.
`Cn1cc(C(F)(F)F)nc1-c1ccc(Cc2c[nH]c3cnc(-c4cccnc4N4CCC4)nc23)cc1` [Compound 67, 2-[2-(azetidin-1-yl)-3-pyridyl]-7-[[4-[1-methyl-4-(trifluoromethyl)imidazol-2-yl]phenyl]methyl]-5H-pyrrolo[3,2-d]pyrimidine] gave an IC50 [1] of at least 10000 nM, an IC50 (USP1-UAF1) of 100 to 10000 nM and an IC50 [2] of 250 to 10000 nM. It also gave an IC50 (monoubiquitinated PCNA) of 250 to 10000 nM.
With `COc1ncnc(C2CC2)c1-c1ncc2[nH]cc(Oc3ccc(-c4nc(C(F)(F)F)cn4C)cc3)c2n1` [Compound 69, 2-(4-cyclopropyl-6-methoxy-pyrimidin-5-yl)-7-[4-[1-methyl-4-(trifluoromethyl)imidazol-2-yl]phenoxy]-5H-pyrrolo[3,2-d]pyrimidine] the IC50 [1] was at least 10000 nM, the IC50 (USP1-UAF1) was 100 to 10000 nM and the IC50 [2] was 250 to 10000 nM. It also gave an IC50 (monoubiquitinated PCNA) of 250 to 10000 nM.
`CC(C)c1ccccc1-c1cc2c(CN3CCN(c4nc(C(F)(F)F)cn4C)CC3)c[nH]c2cn1` [Compound 71] was tested, and the IC50 [1] was 250 to 10000 nM, the IC50 (USP1-UAF1) was 100 to 10000 nM and the IC50 [2] was 250 to 10000 nM. For the same compound, the IC50 (monoubiquitinated PCNA) was 250 to 10000 nM.
With `COC(c1ccc(-c2nc(C(F)(F)F)cn2C)cc1)c1c[nH]c2cnc(-c3ccccc3C(C)C)nc12` (stereo not shown) [Compound 73, 2-(2-isopropylphenyl)-7-[methoxy-[4-[1-methyl-4-(trifluoromethyl)imidazol-2-yl]phenyl]methyl]-5H-pyrrolo[3,2-d]pyrimidine] the IC50 [1] was 250 to 10000 nM, the IC50 (USP1-UAF1) was 100 to 10000 nM and the IC50 [2] was 250 to 10000 nM. The IC50 (monoubiquitinated PCNA) was 100 to 250 nM.
In the case of `Cn1cc(C(F)(F)F)nc1-c1ccc(Cc2c[nH]c3cnc(-c4cccnc4OCC(F)(F)F)nc23)cc1` [Compound 78], the IC50 [1] is reported as 250 to 10000 nM, the IC50 (USP1-UAF1) is reported as under 30 nM and the IC50 [2] is reported as under 100 nM. It also gave an IC50 (monoubiquitinated PCNA) of under 100 nM.
With `COc1ncnc(C2CC2)c1-c1ncc2[nH]cc(Cc3ccc(-c4nc(C(F)(F)F)cn4C4CC4)cc3)c2n1` [Compound 81, 2-(4-cyclopropyl-6-methoxy-pyrimidin-5-yl)-7-[[4-[1-cyclopropyl-4-(trifluoromethyl)imidazol-2-yl]phenyl]methyl]-5H-pyrrolo[3,2-d]pyrimidine] the IC50 [1] was 250 to 10000 nM, the IC50 (USP1-UAF1) was under 30 nM and the IC50 [2] was under 100 nM. The IC50 (monoubiquitinated PCNA) was under 100 nM.
With `COCCn1cc(Cc2ccc(-c3nc(C(F)(F)F)cn3C)cc2)c2nc(-c3ccccc3C(C)C)ncc21` [Compound 83, 2-(2-isopropylphenyl)-5-(2-methoxyethyl)-7-[[4-[1-methyl-4-(trifluoromethyl)imidazol-2-yl]phenyl]methyl]pyrrolo[3,2-d]pyrimidine] the IC50 [1] was at least 10000 nM, the IC50 (USP1-UAF1) was under 30 nM and the IC50 [2] was under 100 nM. It also gave an IC50 (monoubiquitinated PCNA) of under 100 nM.
`Cn1cc(C(F)(F)F)nc1-c1ccc(Sc2c[nH]c3cnc(-c4ccccc4C(F)(F)F)nc23)cc1` [Compound 84, 7-[4-[1-methyl-4-(trifluoromethyl)imidazol-2-yl]phenyl]sulfanyl-2-[2-(trifluoromethyl)phenyl]-5H-pyrrolo[3,2-d]pyrimidine] was tested, and the IC50 [1] was at least 10000 nM, the IC50 (USP1-UAF1) was 100 to 10000 nM and the IC50 [2] was 250 to 10000 nM. For the same compound, the IC50 (monoubiquitinated PCNA) was 250 to 10000 nM.
For `COc1ncnc(C2(F)CC2)c1-c1ncc2[nH]cc(Cc3ccc(-c4nc(C(F)(F)F)cn4C)cc3)c2n1` [Compound 87], the IC50 [1] was at least 10000 nM, the IC50 (USP1-UAF1) was under 30 nM and the IC50 [2] was under 100 nM. For the same compound, the IC50 (monoubiquitinated PCNA) was under 100 nM.
With `COc1ncnc(C2CC2)c1-c1ncc2[nH]cc(Cc3ccc(-n4nc(C(F)(F)F)cc4C)c(F)c3)c2n1` [Compound 88, 2-(4-cyclopropyl-6-methoxy-pyrimidin-5-yl)-7-[[3-fluoro-4-[5-methyl-3-(trifluoromethyl)pyrazol-1-yl]phenyl]methyl]-5H-pyrrolo[3,2-d]pyrimidine] the IC50 [1] was at least 10000 nM, the IC50 (USP1-UAF1) was under 30 nM and the IC50 [2] was under 100 nM. The IC50 (monoubiquitinated PCNA) was under 100 nM.
